Source: US11857565B2, “Hydrophobic Auristatin F compounds and conjugates thereof” (priority 2018, dated 2024)
Read-outs that look alike come from different tables or passages of the source. Starred links: 1 amine or outer side, 2 acyl side, 3 side chain; linkers in the order of their positions; H or OH if unused. Non-standard residues stand in square brackets, D forms with d. Residues, ends and D or L forms follow the SMILES beside them. *: point of attachment. Dolaproine = CO[C@@H]([C@@H]1CCCN1)[C@@H](C)C(=O)O; X3 = CC(C)[C@@H](C(=O)[*:2])N(C)CCCCN(C)[*:1]; X5 = CC(C)[C@@H](C(=O)[*:2])N(C)CCCN(C)[*:1]; Dil = CC[C@H](C)[C@H](NC)[C@@H](CC(=O)O)OC; X12 = CCCCCCCCCCN(C)[C@H](C(=O)*)C(C)C; X11 = CCCCCCCCCN(C)[C@H](C(=O)*)C(C)C; X14 = CCCCCCCCN(C)[C@H](C(=O)*)C(C)C; X20 = CCCCCCCN(C)[C@H](C(=O)*)C(C)C; NMe2Val = CC(C)[C@@H](C(=O)*)N(C)C; X9 = CCCCCCN(C)[C@H](C(=O)*)C(C)C; X10 = CCCCN(C)[C@H](C(=O)*)C(C)C; X19 = CCN(C)[C@H](C(=O)*)C(C)C; NMeV = CN[C@H](C(=O)O)C(C)C; Boc = CC(C)(C)OC(=O)*

Columns and labels:
Type in all cases: cell-based
[1] = system: MDR− HL60 acute myeloid leukemia cell line; assay: In vitro cytotoxicity (CellTiter-Glo cell proliferation assay), free drugs on HL60; conditions: read-out: In vitro IC50 HL60 (MDR−)
Method: (§1) The cytotoxicity of an auristatin Ligand Drug Conjugate or free auristatin drug was measured by a cell proliferation assay employing the protocol described in Promega Corp. Technical Bulletin TB288; Mendoza et al., 2002, Cancer Res. 62:5485-5488), the methods of which is specifically incorporated by reference herein. Briefly, an aliquot of 100 μl of cell culture containing about […] (e.g., HL-60, SK-MEL-5, etc.) in medium is deposited in each well of a 96-well, opaque-walled plate. Control wells were prepared containing medium and without cells. Free Drug or conjugate is added to the experimental wells and incubated for 96 h and are then equilibrated to room temperature for approximately 30 minutes whereupon a volume of CellTiter-Glo™ reagent equal to the volume of cell culture medium present in each well is added. The contents are mixed for 2 minutes on an orbital shaker to induce cell lysis and the plate is incubated at room temperature for 10 minutes to stabilize the luminescence signal for recordation.

[2] = system: MDR+ HL60/RV acute myeloid leukemia cell line; assay: In vitro cytotoxicity (CellTiter-Glo cell proliferation assay), free drugs on HL60/RV; conditions: read-out: In vitro IC50 HL60/RV (MDR+)
Method: as §1

SK-MEL-28 Melanoma = assay: In vitro cytotoxicity, free drugs on SK-MEL-28; conditions: free drug
Method: as §1

SK-MEL-5 Melanoma = assay: In vitro cytotoxicity, free drugs on SK-MEL-5; conditions: free drug
Method: as §1

A2058 Melanoma = assay: In vitro cytotoxicity, free drugs on A2058; conditions: free drug
Method: as §1

A375 Melanoma = assay: In vitro cytotoxicity, free drugs on A375; conditions: free drug
Method: as §1

IGR-37 Melanoma = assay: In vitro cytotoxicity, free drugs on IGR-37; conditions: free drug
Method: as §1

[3] = In vitro cytotoxicity, free drugs on Colo-853; conditions: free drug; read-out: In vitro IC50 Colo-853 Colon Cancer
Method: as §1

CCCCCCCN(C)[C@H](C(=O)N[C@H](C(=O)N(C)[C@@H]([C@@H](C)CC)[C@@H](CC(=O)N1CCC[C@H]1[C@H](OC)[C@@H](C)C(=O)N[C@@H](Cc1ccccc1)C(=O)O)OC)C(C)C)C(C)C [Compound 9, Heptyl-AF] (X20-V[Dil][Dolaproine]F-OH)
IC50 ([1]; Homo sapiens, HL-60, 96 h): 7.7 nM | IC50 ([2]; Homo sapiens, HL-60, 96 h): 88.5 nM

CCCCN(C)[C@H](C(=O)N[C@H](C(=O)N(C)[C@@H]([C@@H](C)CC)[C@@H](CC(=O)N1CCC[C@H]1[C@H](OC)[C@@H](C)C(=O)N[C@@H](Cc1ccccc1)C(=O)O)OC)C(C)C)C(C)C [Compound 6, Butyl-AF] (X10-V[Dil][Dolaproine]F-OH)
IC50 ([1]; Homo sapiens, HL-60, 96 h): 14.3 nM | IC50 ([2]; Homo sapiens, HL-60, 96 h): 47.9 nM

CCCCCCCCN(C)[C@H](C(=O)N[C@H](C(=O)N(C)[C@@H]([C@@H](C)CC)[C@@H](CC(=O)N1CCC[C@H]1[C@H](OC)[C@@H](C)C(=O)N[C@@H](Cc1ccccc1)C(=O)O)OC)C(C)C)C(C)C [Compound 10, Octyl-AF] (X14-V[Dil][Dolaproine]F-OH)
IC50 ([1]; Homo sapiens, HL-60, 96 h): 3.9 nM | IC50 ([2]; Homo sapiens, HL-60, 96 h): 55.9 nM

CC[C@H](C)[C@@H]([C@@H](CC(=O)N1CCC[C@H]1[C@H](OC)[C@@H](C)C(=O)N[C@@H](Cc1ccccc1)C(=O)O)OC)N(C)C(=O)[C@@H](NC(=O)[C@H](C(C)C)N(C)CC)C(C)C [Compound 4, Ethyl-AF] (X19-V[Dil][Dolaproine]F-OH)
IC50 ([1]; Homo sapiens, HL-60, 96 h): 23.2 nM | IC50 ([2]; Homo sapiens, HL-60, 96 h): 145 nM

CCCCCCCCCN(C)[C@H](C(=O)N[C@H](C(=O)N(C)[C@@H]([C@@H](C)CC)[C@@H](CC(=O)N1CCC[C@H]1[C@H](OC)[C@@H](C)C(=O)N[C@@H](Cc1ccccc1)C(=O)O)OC)C(C)C)C(C)C [Compound 11, Nonyl-AF] (X11-V[Dil][Dolaproine]F-OH)
IC50 ([1]; Homo sapiens, HL-60, 96 h): 1.8 nM | IC50 ([2]; Homo sapiens, HL-60, 96 h): 35.4 nM

CC[C@H](C)[C@@H]([C@@H](CC(=O)N1CCC[C@H]1[C@H](OC)[C@@H](C)C(=O)N[C@@H](Cc1ccccc1)C(=O)O)OC)N(C)C(=O)[C@@H](NC(=O)[C@H](C(C)C)N(C)CCCN(C)C(=O)OC(C)(C)C)C(C)C [Compound 25, (Boc-N-methyl)-propyl-AF] (Boc-[X5]V[Dil][Dolaproine]F-OH)
IC50 (SK-MEL-28 Melanoma; Homo sapiens, SK-MEL-28): 17.2 nM | IC50 (SK-MEL-5 Melanoma; Homo sapiens, SK-MEL-5): 6.1 nM | IC50 (A2058 Melanoma; Homo sapiens, A2058): 4 nM | IC50 (A375 Melanoma; Homo sapiens, A-375): 5.9 nM | IC50 (IGR-37 Melanoma; Homo sapiens, IGR-37): 16.1 nM | IC50 [3]: 15.1 nM

CC[C@H](C)[C@@H]([C@@H](CC(=O)N1CCC[C@H]1[C@H](OC)[C@@H](C)C(=O)N[C@@H](Cc1ccccc1)C(=O)O)OC)N(C)C(=O)[C@@H](NC(=O)[C@H](C(C)C)N(C)CCCCN(C)C(=O)OC(C)(C)C)C(C)C [Compound 16, (Boc-N-methyl)-butyl-AF] (Boc-[X3]V[Dil][Dolaproine]F-OH)
IC50 (SK-MEL-28 Melanoma; Homo sapiens, SK-MEL-28): 4.4 nM | IC50 (SK-MEL-5 Melanoma; Homo sapiens, SK-MEL-5): 0.4 nM | IC50 (A2058 Melanoma; Homo sapiens, A2058): 0.9 nM | IC50 (A375 Melanoma; Homo sapiens, A-375): 0.7 nM | IC50 (IGR-37 Melanoma; Homo sapiens, IGR-37): 2.5 nM | IC50 [3]: 6.2 nM

CC[C@H](C)[C@@H]([C@@H](CC(=O)N1CCC[C@H]1[C@H](OC)[C@@H](C)C(=O)N[C@@H](Cc1ccccc1)C(=O)O)OC)N(C)C(=O)[C@@H](NC(=O)[C@@H](NC)C(C)C)C(C)C [Compound 2, Monomethyl auristatin F, reference compound] (H-[NMeV]V[Dil][Dolaproine]F-OH)
IC50 (SK-MEL-28 Melanoma): 138 nM | IC50 (SK-MEL-5 Melanoma): 35.6 nM | IC50 (A2058 Melanoma): 84.2 nM | IC50 (A375 Melanoma): 48.9 nM | IC50 (IGR-37 Melanoma): 72.5 nM | IC50 [3]: 90.2 nM

CCCCCCN(C)[C@H](C(=O)N[C@H](C(=O)N(C)[C@@H]([C@@H](C)CC)[C@@H](CC(=O)N1CCC[C@H]1[C@H](OC)[C@@H](C)C(=O)N[C@@H](Cc1ccccc1)C(=O)O)OC)C(C)C)C(C)C [Compound 8, Hexyl-AF] (X9-V[Dil][Dolaproine]F-OH)
IC50 ([1]; Homo sapiens, HL-60, 96 h): 6.9 nM | IC50 ([2]; Homo sapiens, HL-60, 96 h): 40.9 nM

CC[C@H](C)[C@@H]([C@@H](CC(=O)N1CCC[C@H]1[C@H](OC)[C@@H](C)C(=O)N[C@@H](Cc1ccccc1)C(=O)O)OC)N(C)C(=O)[C@@H](NC(=O)[C@H](C(C)C)N(C)C)C(C)C [Compound 1, Auristatin F] (NMe2Val-V[Dil][Dolaproine]F-OH)
IC50 ([1]; free drug, 96 h incubation): 137 nM | IC50 ([2]; free drug, 96 h incubation): 388 nM

CCCCCCCCCCN(C)[C@H](C(=O)N[C@H](C(=O)N(C)[C@@H]([C@@H](C)CC)[C@@H](CC(=O)N1CCC[C@H]1[C@H](OC)[C@@H](C)C(=O)N[C@@H](Cc1ccccc1)C(=O)O)OC)C(C)C)C(C)C [Compound 12, Decyl-AF] (X12-V[Dil][Dolaproine]F-OH)
IC50 ([1]; Homo sapiens, HL-60, 96 h): 1 nM | IC50 ([2]; Homo sapiens, HL-60, 96 h): 59.2 nM
